Laboratory results reported in patent US5980913A, “Peptides having immunomodulatory activity” (Biochem Pharma, Inc., priority 1994, dated 1999).
Where a SMILES comes first, the peptide text is derived from it.

What was measured:
[1] = system: C57BL/6 lymphocytes with irradiated DBA/2 cells; experiment: Mixed lymphocyte reaction (MLR), 3H thymidine uptake; assay type: cell-based, mice; conditions: concentration not given; 0 not defined
From the text: 1. Cytotoxic T Lymphocytes (CTL) Mixed Lymphocyte Reaction (MLR) and Mitogenic Response Assays
The protocols used are described in Hudson L., Haay F., Pratical immunology, 3rd edition, Blackwell, Scientific publications, Oxford 1989, p. 158-162, and p.447.
Lymphocytes were isolated from C57BL/6 mice and DBA/2 mice in accordance to techniques well known in the art. Cell concentration was adjusted to 10×10^6 cell/ml for each assay. The cells isolated from DBA/2 mice were irradiated with 3000 Rads.
In a 6 well plate, each well was set up with:
The cells were incubated for five days at 37° C. in 5% CO2, after which CTL and MLR assays were performed.
b) Mixed Lymphocyte Reaction (MLR)
Mixed lymphocyte reaction is an in vitro counterpart of the allograft rejection. Briefly, lymphocyte activation (mitotic response) is obtained when cells from two inbred strains or from two outbred individuals of any species are mixed in in vitro culture. To have a unidirectional response, the proliferation of either cell type may be blocked with X-ray irradiation or mitomycin C treatment. After 4 days incubation, ^3 H thymidine uptake and cytotoxicity assays (CTL) were performed. The cells were then resuspended and 100 μl of cell suspension was deposited in each well of a 96 well plate. 1 μCi of tritiated thymidine was added for 6 hours. After incubation, the cells were then harvested and counted using a Microbeta counter.

[2] = system: spleen cell subsets (cell surface antigens); experiment: In vivo/ex vivo immunophenotyping in the spleen, mice treated 4 consecutive days; design: species or system C57BL/6 mice
Protocol: C57BL.backslash.6 mice are treated with 0, 50, 100, 200, and 300 mg/kg of drug (in saline) for 4 consecutive days. Blood is taken by cardiac puncture on day 5, and the lymphocytes are isolated from spleen in the following manner:
The spleen is aseptically removed and mashed by pressing against a steel strainer with a rubber plunger. The cell suspension is separated from the clumps by letting them settle at the bottom of the tube. The cell suspension is then separated on a Lymphocyte M layer and the interface is recovered and resuspended in media.
1. Immunophenotyping (blood and spleen)
Cell immunophenotyping is performed on blood and spleen. The following cell surface antigens are analyzed:
CD4 (T helper/inducer, binds class II-restricted T cells);
CD8 (cytotoxic T cells, CTL adhesion);
MAC-1 (monocyte/macrophage);
NK (natural killer cells);
CD45 (all leukocytes, protein tyrosine phosphatase).

## NCCCC[C@H](N)C(=O)N[C@@H](CC(N)=O)C(=O)N1CCC[C@H]1C(=O)N[C@@H](Cc1ccc(O)cc1)C(=O)O [PEPTIDE #1, H-Lys-Asn-Pro-Tyr-OH] (H-KNPY-OH)
[1]
  MLR: 0
[2]; 50 mg/kg
  B cell subset, relative percentage: 11.60
  CD4+ CD8+ cell subset, relative percentage: 1.10
  CD4+ CD8- cell subset, relative percentage: 38.30
  CD4+ CD11+ cell subset, relative percentage: 0.17
  CD4+ CD11- cell subset, relative percentage: 18.47
  CD4+ CD45+ cell subset, relative percentage: 33.30
  CD4+ CD45- cell subset, relative percentage: 6.10
  CD4- CD8+ cell subset, relative percentage: 16.15
  CD4- CD8- cell subset, relative percentage: 44.45
  CD4- CD11+ cell subset, relative percentage: 1.20
  CD4- CD11- cell subset, relative percentage: 80.17
  CD4- CD45+ cell subset, relative percentage: 58.65
  CD4- CD45- cell subset, relative percentage: 1.95
  CD8+ CD45+ cell subset, relative percentage: 16.90
  CD8+ CD45- cell subset, relative percentage: 0.10
  CD8- CD45+ cell subset, relative percentage: 73.15
  CD8- CD45- cell subset, relative percentage: 9.85
  CD45-8 cell subset, relative percentage: 60.70
  CD45- Th1 cell subset, relative percentage: 39.10
  NK+ CD3+ cell subset, relative percentage: 4.70
  NK+ CD3- cell subset, relative percentage: 7.47
  NK- CD3+ cell subset, relative percentage: 42.80
  NK- CD3- cell subset, relative percentage: 45.10
[2]; 100 mg/kg
  B cell subset, relative percentage: 14.97
  CD4+ CD8+ cell subset, relative percentage: 2.40
  CD4+ CD8- cell subset, relative percentage: 32.30
  CD4+ CD11+ cell subset, relative percentage: 0.20
  CD4+ CD11- cell subset, relative percentage: 18.23
  CD4+ CD45+ cell subset, relative percentage: 30.90
  CD4+ CD45- cell subset, relative percentage: 3.80
  CD4- CD8+ cell subset, relative percentage: 12.45
  CD4- CD8- cell subset, relative percentage: 52.85
  CD4- CD11+ cell subset, relative percentage: 1.53
  CD4- CD11- cell subset, relative percentage: 80.07
  CD4- CD45+ cell subset, relative percentage: 61.45
  CD4- CD45- cell subset, relative percentage: 3.85
  CD8+ CD45+ cell subset, relative percentage: 14.25
  CD8+ CD45- cell subset, relative percentage: 0.05
  CD8- CD45+ cell subset, relative percentage: 76.35
  CD8- CD45- cell subset, relative percentage: 9.35
  CD45-8 cell subset, relative percentage: 65.55
  CD45- Th1 cell subset, relative percentage: 34.55
  NK+ CD3+ cell subset, relative percentage: 4.40
  NK+ CD3- cell subset, relative percentage: 7.93
  NK- CD3+ cell subset, relative percentage: 41.50
  NK- CD3- cell subset, relative percentage: 46.20
[2]; 200 mg/kg
  B cell subset, relative percentage: 16.33
  CD4+ CD8+ cell subset, relative percentage: 2.27
  CD4+ CD8- cell subset, relative percentage: 29.50
  CD4+ CD11+ cell subset, relative percentage: 0.20
  CD4+ CD11- cell subset, relative percentage: 20.03
  CD4+ CD45+ cell subset, relative percentage: 27.98
  CD4+ CD45- cell subset, relative percentage: 3.77
  CD4- CD8+ cell subset, relative percentage: 12.49
  CD4- CD8- cell subset, relative percentage: 40.94
  CD4- CD11+ cell subset, relative percentage: 1.53
  CD4- CD11- cell subset, relative percentage: 78.27
  CD4- CD45+ cell subset, relative percentage: 43.44
  CD4- CD45- cell subset, relative percentage: 2.31
  CD8+ CD45+ cell subset, relative percentage: 12.36
  CD8+ CD45- cell subset, relative percentage: 0.04
  CD8- CD45+ cell subset, relative percentage: 62.30
  CD8- CD45- cell subset, relative percentage: 7.32
  CD45-8 cell subset, relative percentage: 53.14
  CD45- Th1 cell subset, relative percentage: 31.64
  NK+ CD3+ cell subset, relative percentage: 5.27
  NK+ CD3- cell subset, relative percentage: 8.07
  NK- CD3+ cell subset, relative percentage: 44.33
  NK- CD3- cell subset, relative percentage: 42.33
[2]; 300 mg/kg
  B cell subset, relative percentage: 14.60
  CD4+ CD8+ cell subset, relative percentage: 4.33
  CD4+ CD8- cell subset, relative percentage: 34.30
  CD4+ CD11+ cell subset, relative percentage: 0.53
  CD4+ CD11- cell subset, relative percentage: 20.53
  CD4+ CD45+ cell subset, relative percentage: 35.00
  CD4+ CD45- cell subset, relative percentage: 3.67
  CD4- CD8+ cell subset, relative percentage: 16.17
  CD4- CD8- cell subset, relative percentage: 45.20
  CD4- CD11+ cell subset, relative percentage: 2.23
  CD4- CD11- cell subset, relative percentage: 76.67
  CD4- CD45+ cell subset, relative percentage: 57.40
  CD4- CD45- cell subset, relative percentage: 3.97
  CD8+ CD45+ cell subset, relative percentage: 19.77
  CD8+ CD45- cell subset, relative percentage: 0.03
  CD8- CD45+ cell subset, relative percentage: 69.93
  CD8- CD45- cell subset, relative percentage: 10.30
  CD45-8 cell subset, relative percentage: 61.63
  CD45- Th1 cell subset, relative percentage: 38.43
  NK+ CD3+ cell subset, relative percentage: 9.47
  NK+ CD3- cell subset, relative percentage: 10.83
  NK- CD3+ cell subset, relative percentage: 41.10
  NK- CD3- cell subset, relative percentage: 38.63
[2]; 200 and 300 mg/kg
  change of relative percentage of CD8+CD45+ (cytotoxic T cells) subset (in words): significant increase
  change of relative percentage of NK+CD3+ (NK cells) subset (in words): significant increase
